Test results published in ChEMBL document CHEMBL1122907, “Synthesis of 1-[[2-hydroxy-1-(hydroxymethyl)ethoxy] methyl]-5-benzyluracil and its amino analogue, new potent uridine phosphorylase inhibitors with high water solubility” (J Med Chem, 1985).

Test: Binding affinity was determined against uridine phosphorylase in Sarcoma 180 cells
Assay type: cell-based
Work on `O=c1[nH]c(=O)n(COC(CO)CO)cc1Cc1ccccc1` yielded a Ki of 98 nM. In the case of `O=c1[nH]c(=O)n(COCCO)cc1Cc1ccccc1`, the Ki is reported as 98 nM. In the case of `NCC(CO)OCn1cc(Cc2ccccc2)c(=O)[nH]c1=O` (stereo not drawn), the Ki is reported as 20 nM.
